Experimental data reported in patent publication US6448392B1, “Lipid derivatives of antiviral nucleosides: liposomal incorporation and method of use” (Chimerix, Inc., priority 1985, dated 2002).
Where a name gives a salt, the structure may show the parent alone.

What was measured:
Type in all cases: cell-based
HIV in CEM tk- cells = assay: Inhibition of HIV p24 production in thymidine kinase deficient CEM tk- cells; conditions: Experiment H637-1b, AZT 0.2 to 100 uM
Procedure: (§1) The human T lymphoblastoid cell line, CCRG-CEM (hereafter referred to as CEM), was grown in RPMI 1640 medium containing 100 U/ml penicillin G, 100 ug/ml streptomycin, 2 mM glutamine and 10% fetal bovine serum (Hyclone Laboratories, Logan, Utah). Cells were infected with the LAV-1 strain (L. Montagnier, Paris, France) at a multiplicity of infection of one tissue culture 50% infectious dose (TCID50)/cell for 60 minutes at 37° C. in medium containing […]. CEM cells were infected in suspension at 6×10^4 cells/ml, washed three times by centrifugation and resuspension and then distributed in 96-well plates at 6×10^4 cells/well before addition of medium containing the liposomal antiretroviral liponucleotide drugs.
(§2) Antiviral activity was assayed after 3 days by the inhibition of the production of HIV p24 (gag) antigen in the cell free culture medium of the infected cells exposed to different concentrations of drug; p24 antigen was measured by ELISA (Abbott Laboratories, Chicago, Ill.) according to the manufacturer's instructions. The data are the average of two determinations and are expressed as percentage of a control incubated in the absence of drugs.
In this experiment, CEM cells were replaced with mutant cells (provided by Dr. Dennis Carson, Scripps Clinic, San Diego, Calif.) which lack the thymidine kinase enzyme (CEM tk−).

HIV (LAV-1 strain) = test system: HIV (LAV-1 strain)
Procedure: 6.42 micromoles of dioleoylphosphatidylcholine, 3.85 micromoles of cholesterol, 1.28 micromoles of dioleoylphosphatidylglycerol and 1.28 micromoles of dimyristoylphosphatidyl-azidothymidine were mixed in a sterile 2.0 ml glass vial and the solvent was removed in vacuo in a rotary evaporator. In some experiments, dimyristoylphosphatidylazidothymidine was replaced with either dimyristoylphosphatidyldideoxythymidine, dimyristoylphosphatidyldideoxycytidine or azidothymidine diphosphate dimyristoylglycerol; control liposomes were prepared by omitting the antiviral liponucleotide. The dried film was placed under high vacuum overnight at room temperature to remove traces of solvent. The lipid film was hydrated at 30° C. with 0.3 ml of sterile 10 mM sodium acetate buffer (pH 5.0) containing isotonic dextrose and the ampule was sealed. The mixture was vortexed intermittently for 10 minutes followed by sonication using a Heat Systems Ultrasonics sonicator with a cup horn generator (431B) at output control setting #9 for 90 to 120 minutes at which time the sample is clarified. This sonicated preparation was diluted with sterile RPMI buffer and added to the tissue culture wells at the concentration indicated.
as §1, §2

[1] = test system: HIV in CEM (wild type) cells; assay: Experiment I276: antiviral protection of CEM cells by preincubation, p24 in supernates; conditions: 3 day preincubation; 24 and 48 hours in normal media after removal of drug
Procedure: The cells were then washed twice with PBS, and fresh RPMI media added. Each group of cells was then divided into three batches. One batch was immediately infected with HIV, as noted above; after washing away unattached HIV, the sample was allowed to incubate in media alone for 3 days. Two other batches were allowed to incubate in media alone for either 24 or 48 hours to allow any intracellular antiviral agent present to become depleted. Then they were infected with HIV, the cells washed free of virus, and fresh RPMI media added. After 3 days of further incubation, the supernates of all batches were tested for the presence of p24 protein.
CEM cells were subjected to HIV infection without preincubation; drug was added following HIV infection as indicated, and the cells were incubated for 3 days.
After a further incubation for 3 days, p24 was measured.

## CCCCCCCCCCCCCC(=O)OC[C@H](COP(=O)(O)OC[C@H]1O[C@@H](n2cc(C)c(=O)[nH]c2=O)C[C@@H]1N=[N+]=[N-])OC(=O)CCCCCCCCCCCCC [LN1, 1,2-Dimyristoylglycerophospho-5′-(3′-azido-3′-deoxy)thymidine, Monosodium Salt]
HIV in CEM tk- cells
  effect on p24 production: capable of reducing p24 production
HIV (LAV-1 strain); Experiment H533-1, liposomes containing 10 mole percent liponucleotide, CEM wild type, p24 after 3 days, read-out: amount of drug required to reduce virus production by 50% (E.D. 50)
  EC50: 2000 nM
HIV (LAV-1 strain); Experiment H747-1a, concentrations ranging from 2 to 170 uM
  effectiveness in reducing p24, phosphatidylAZT liposomes versus free AZT: more effective than the free AZT
[1]
  protection from HIV after removal of the drug: complete protection from HIV replication
